Experimental data: patent US11564394B2, “Distorted gold (I)-phosphine complexes and methods for use as antifungal agents” (University of Kentucky Research Foundation, priority 2019, dated 2023)
Several values for one entry are separate records, joined by “and”; a condition that tells them apart may be missing. Identical values can stand only once. Like-named read-outs stand apart in the source and are kept apart here.

Columns and labels:
[1] = system: C. auris AR Bank # 0384 (strain K) pre-formed biofilm; assay type: cell-based, Candida auris; conditions: biofilm treated at 24 h, XTT
[2] = system: C. albicans ATCC 10231 (strain B) pre-formed biofilm; assay: Disruption of pre-formed biofilm (XTT); assay type: cell-based, Candida albicans; conditions: for Pre-formed biofilm SMIC90: biofilm treated at 24 h, XTT
[3] = system: C. albicans ATCC MYA-1003(R) (strain A); assay type: cell-based, Candida albicans; conditions: strain A = C. albicans ATCC MYA-1003(R); MIC-0; 48 h at 35° C.
[4] = system: C. auris AR Bank # 0390 (strain L) biofilm; assay type: cell-based, Candida auris; conditions: treated at 0 h, XTT
[5] = system: fungal strains (Candida spp., Cryptococcus spp., Aspergillus spp., Fusarium spp.); assay: MIC determination, summary statements over the strain panel; assay type: cell-based
[6] = system: C. neoformans ATCC MYA-85 (strain M); assay: MIC determination (broth microdilution); assay type: cell-based, Cryptococcus neoformans; conditions: strain M = C. neoformans ATCC MYA-85; MIC-0; 72 h at 35° C.
[7] = system: C. neoformans CN2 (strain O); assay: MIC determination (broth microdilution); assay type: cell-based, Cryptococcus neoformans; conditions: MIC-0, 72 h at 35° C.
[8] = system: F. graminearum 053 (strain T); assay type: cell-based, Fusarium graminearum; conditions: strain T = F. graminearum 053; MIC-0; room temperature, 5 days
[9] = system: C. albicans ATCC 10231(R) (strain B); assay type: cell-based, Candida albicans
[10] = system: C. neoformans CN3 (strain P); assay: MIC determination (broth microdilution); assay type: cell-based, Cryptococcus neoformans; conditions: MIC-0, 72 h at 35° C.
[11] = system: C. albicans ATCC MYA-1237(R) (strain C); assay type: cell-based, Candida albicans; conditions: strain C = C. albicans ATCC MYA-1237(R); MIC-0; 48 h; listed as printed beside letter D
[12] = system: A. nidulans ATCC 38163 (strain Q); assay: MIC determination (broth microdilution); assay type: cell-based, Aspergillus nidulans; conditions: strain Q = A. nidulans ATCC 38163; MIC-0; 72 h at 35° C.
[13] = system: C. albicans ATCC 90819(R) (strain G); assay type: cell-based, Candida albicans; conditions: strain G = C. albicans ATCC 90819(R); MIC-0; 48 h; listed as printed without letter, below G
[14] = system: C. krusei ATCC 6258 (strain I); assay: MIC determination (broth microdilution); assay type: cell-based; conditions: strain I = C. krusei ATCC 6258; MIC-0; 48 h; listed as split over r16 and r17 (r17 printed beside letter J)
[15] = system: C. glabrata ATCC 2001 (strain H) biofilm; assay: Prevention of biofilm formation (XTT); assay type: cell-based, Candida glabrata; conditions: treated at 0 h
[16] = system: C. glabrata ATCC 2001 (strain H); assay: MIC determination (broth microdilution); assay type: cell-based, Candida glabrata; conditions: strain H = C. glabrata ATCC 2001; MIC-0; 48 h at 35° C.
[17] = system: C. albicans ATCC 10231 (strain B) biofilm; assay: Prevention of biofilm formation (XTT); assay type: cell-based, Candida albicans; conditions: treated at 0 h, 90% decrease in metabolic activity (XTT)
[18] = system: C. glabrata ATCC 2001 (strain H) pre-formed biofilm; assay: Disruption of pre-formed biofilm (XTT); assay type: cell-based, Candida glabrata; conditions: for Pre-formed biofilm SMIC90: biofilm treated at 24 h, XTT
[19] = system: C. parapsilosis ATCC 22019 (strain J); assay: MIC determination (broth microdilution); assay type: cell-based; conditions: strain J = C. parapsilosis ATCC 22019; MIC-0; 48 h; listed as printed beside letter K
[20] = system: C. auris AR Bank # 0382 (strain II); assay: MIC determination (broth microdilution); assay type: cell-based, Candida auris; conditions: strain II = C. auris AR Bank # 0382; MIC-0; 48 h (CAS read at 24 h)
[21] = system: C. auris AR Bank # 0388 (strain VII); assay: MIC determination (broth microdilution); assay type: cell-based, Candida auris; conditions: strain VII = C. auris AR Bank # 0388; MIC-0; 48 h (CAS read at 24 h)
[22] = system: C. auris AR Bank # 0389 (strain VIII); assay: MIC determination (broth microdilution); assay type: cell-based, Candida auris; conditions: strain VIII = C. auris AR Bank # 0389; MIC-0; 48 h (CAS read at 24 h)
[23] = system: C. auris AR Bank # 0383 (strain III); assay: MIC determination (broth microdilution); assay type: cell-based, Candida auris; conditions: strain III = C. auris AR Bank # 0383; MIC-0; 48 h (CAS read at 24 h)
[24] = system: C. auris AR Bank # 0387 (strain VI); assay: MIC determination (broth microdilution); assay type: cell-based, Candida auris; conditions: strain VI = C. auris AR Bank # 0387; MIC-0; 48 h (CAS read at 24 h)
[25] = strain B = C. albicans ATCC 10231(R), MIC-0, 48 h, listed as split over r8 and r9 (r9 printed beside letter C)

CC(=O)OC[C@H]1O[C@@H]([S-])[C@H](OC(C)=O)[C@@H](OC(C)=O)[C@@H]1OC(C)=O.CCP(CC)CC.[Au+] [Auranofin, auranofin, reference compound]
Pre-formed biofilm SMIC90 [1]: >31.3 µg/mL
Pre-formed biofilm SMIC90 [2]: 7.8 µg/mL
Pre-formed biofilm SMIC90 ([2]; listed as auranofin): the same SMIC90 as compound 4
MIC [3]: > 31.3 µg/mL
MIC (in parentheses) [3]: > 46.1 µM
Biofilm prevention SMIC90 [4]: >31.3 µg/mL
MIC ([5]; Candida spp.): > 31.3 µg/mL
antifungal activity ([5]; Candida spp.): no antifungal activity
antifungal activity class ([5]; Candida spp.): poor (MIC ≥15.6 μg/mL (poor antifungal activity))
MIC ([5]; two Aspergillus spp.): 3.9 µg/mL and 7.8 µg/mL
antifungal activity class ([5]; two Aspergillus spp.): good (MIC = 3.9-7.8 μg/mL (good antifungal activity))
MIC [6]: ≤ 0.06 µg/mL
MIC (in parentheses) [6]: ≤ 0.1 µM
MIC [7]: 7.8 µg/mL
MIC (in parentheses) [7]: 11.5 µM
MIC [8]: > 31.3 µg/mL
MIC (in parentheses) [8]: > 46.1 µM
MIC [9, 25]: > 31.3 µg/mL
MIC (in parentheses) [9, 25]: > 46.1 µM
MIC [10]: 3.9 µg/mL
MIC (in parentheses) [10]: 5.7 µM
MIC [11]: > 31.3 µg/mL
MIC (in parentheses) [11]: > 46.1 µM
MIC [12]: 3.9 µg/mL
MIC (in parentheses) [12]: 5.7 µM
MIC [13]: > 31.3 µg/mL
MIC (in parentheses) [13]: > 46.1 µM
MIC [14]: 31.3 µg/mL
MIC (in parentheses) [14]: 46.1 µM
Biofilm prevention SMIC90 [15]: 31.3 µg/mL
MIC [16]: > 31.3 µg/mL
MIC (in parentheses) [16]: > 46.1 µM
Biofilm prevention SMIC90 [17]: 7.8 µg/mL
Pre-formed biofilm SMIC90 [18]: >31.3 µg/mL
Pre-formed biofilm SMIC90 ([18]; listed as auranofin): inactive
MIC [19]: > 31.3 µg/mL
MIC (in parentheses) [19]: > 46.1 µM

bis-[1,2-bis[(2R,5R)-2,5-dimethylfphospholano]benzene]gold(1) [Compound 6]
Pre-formed biofilm SMIC90 [1]: 7.8 µg/mL
SMIC90 of pre-formed biofilm relative to MIC with planktonic cells [2]: 4 fold
Pre-formed biofilm SMIC90 [2]: 3.9 µg/mL
MIC [20]: 0.98 µg/mL
MIC (in parentheses) [20]: 1.2 µM
MIC [3]: 0.49 µg/mL
MIC (in parentheses) [3]: 0.6 µM
MIC [21]: 1.95 µg/mL
MIC (in parentheses) [21]: 2.3 µM
Biofilm prevention SMIC90 [4]: 3.9 µg/mL
overall assessment as antifungals ([5]; panel of twenty fungal strains (Table 1)): great promise
MIC [6]: 0.25 µg/mL
MIC (in parentheses) [6]: 0.3 µM
MIC [7]: 0.49 µg/mL
MIC (in parentheses) [7]: 0.6 µM
MIC [8]: 3.9 µg/mL
MIC (in parentheses) [8]: 4.6 µM
MIC [22]: 1.95 µg/mL
MIC (in parentheses) [22]: 2.3 µM
MIC [9]: 0.98 (1.2) μg/mL
MIC (in parentheses) [9]: 0.98 (1.2) μM
MIC [10]: 0.49 µg/mL
MIC (in parentheses) [10]: 0.6 µM
MIC [11]: 0.98 µg/mL
MIC (in parentheses) [11]: 1.2 µM
MIC [23]: 3.9 µg/mL
MIC (in parentheses) [23]: 4.6 µM
MIC [12]: 3.9 µg/mL
MIC (in parentheses) [12]: 4.6 µM
MIC [24]: 1.95 µg/mL
MIC (in parentheses) [24]: 2.3 µM
MIC [13]: 0.49 µg/mL
MIC (in parentheses) [13]: 0.6 µM
MIC [14]: 0.98 µg/mL
MIC (in parentheses) [14]: 0.6 µM
Biofilm prevention SMIC90 [15]: 1.95 µg/mL
MIC [16]: 0.98 µg/mL
MIC (in parentheses) [16]: 0.6 µM
Biofilm prevention SMIC90 [17]: 0.98 µg/mL
SMIC90 of pre-formed biofilm relative to MIC with planktonic cells [18]: 4 fold
Pre-formed biofilm SMIC90 [18]: 3.9 µg/mL
MIC [19]: 0.49 µg/mL
MIC (in parentheses) [19]: 0.6 µM
